Laboratory results: patent US10280198B2, “Therapeutic agents for reducing parathyroid hormone levels” (KAI PHARMACEUTICALS, INC., priority 2009, dated 2019)
Entries after “also recorded” stand apart in the source; their conditions may differ.

Tests used:
plasma PTH = experiment: In vivo PTH lowering after IV bolus in isoflurane-anesthetized normal Sprague Dawley rats; design: species or system rat; conditions: for PTH-lowering activity in normal rats: 0.5 mg/kg single IV administration
Method in brief: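 Peptides were given as a 0.5 mg/kg IV bolus to normal Sprague Dawley rats kept under isoflurane throughout, with saline bolus controls.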

[1] = tested on: rat peritoneal mast cells; experiment: In vitro histamine induction in rat peritoneal mast cells; assay type: cell-based
Method in brief: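 Mast cells from peritoneal lavage of Sprague Dawley rats were incubated with compound at 10 μM for 15 min at 37 °C in HBSS + 25 mM HEPES pH 7.4. Supernatant histamine measured by EIA; response expressed as fold change versus pre-incubation levels.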

| Compound | duration of decreased PTH (plasma PTH; 0.5 mg/kg IV bolus, normal rats, FIG. 5) | PTH-lowering activity in normal rats (plasma PTH) | % PTH reduction of baseline at 1 hour post IV admin. of 0.5 mg/kg compound (plasma PTH; Table 1, isoflurane-anesthetized normal rats, 0.5 mg/kg IV, 1 hour) [%] | 0.5 mg/kg IV bolus % PTH AUC of saline control (plasma PTH; Table 1, normal rats, PTH at 1, 2, 3, 4 h, AUCcmpd treated/AUCsaline control*100) [%] | 0.5 mg/kg IV bolus % PTH AUC of saline control (plasma PTH; Table 3, normal rats, AUC 1-4 h) [%] | Histamine in vitro Fold change of non-treated at 10 uM [1] [fold] | % PTH reduction of baseline at 1 hour post IV administration of 0.5 mg/kg compound (plasma PTH; Table 2, isoflurane-anesthetized normal rats, 0.5 mg/kg IV, 1 hour) [%] | 0.5 mg/kg IV bolus % PTH AUC of saline control (plasma PTH; Table 2, normal rats, AUC 1-4 h) [%] |
| --- | --- | --- | --- | --- | --- | --- | --- | --- |
| CC(=O)N[C@H](CS)C(=O)N[C@H](CCCNC(=N)N)C(=O)N[C@H](CCCNC(=N)N)C(=O)N[C@H](CCCNC(=N)N)C(=O)N[C@H](CCCNC(=N)N)C(=O)N[C@H](CCCNC(=N)N)C(=O)N[C@H](CCCNC(=N)N)C(N)=O [SEQ ID NO: 6, Ac-crrrrrr-NH2] | at least four hours | below the detection limit or essentially zero | 4 | 0 | 3 | 11.5 |  |  |
| CC(=O)N[C@H](CS)C(=O)N[C@H](C)C(=O)N[C@H](CCCNC(=N)N)C(=O)N[C@H](CCCNC(=N)N)C(=O)N[C@H](CCCNC(=N)N)C(=O)N[C@H](C)C(=O)N[C@H](CCCNC(=N)N)C(N)=O [SEQ ID NO: 26, Ac-carrrar-NH2] |  | decreased PTH blood concentration to a non-detectable level for up to 4 hours after dosing; also recorded: very active |  |  |  | 1.4 | 0 | 1 |
